Entries after “also recorded” stand apart in the source; their conditions may differ.

The conditions of data set [1]: cited from earlier work.
For data set [2], the system named is H9c2 cells. As to the kind of experiment: Cytosolic and nuclear iron in H9c2 cells preloaded with radioactive 55Fe. Type of data set: cell-based, rat. The conditions noted are these: H9c2 cells preloaded with 55Fe. As to the method:
(§1) H9c2 cardiomyoblasts were cultured in DMEM (ATCC) supplemented with 10% FBS (Thermo) and Penicillin/Streptomycin (Cellgro). HEK293T cells were cultured in MEM (Cellgro) supplemented with 10% FBS, sodium pyruvate (Cellgro) and Penicillin/Streptomycin. Unless otherwise specified, cells were treated with 200 μM of DFO or 100 μM of BPD for two hours when indicated prior to addition of 600 μM of H2O2 when indicated for 6 hours. RNA isolation and qRT-PCR RNA was isolated using RNA-STAT60 (Tel-Test) according to the manufacturer's instructions, and subjected to DNAse I (Ambion) digestion to remove residual DNA. Purified RNA was then reverse transcribed with Random Hexamer and Oligo dT(16) (Applied Biosystems) and amplified on a 7500 Fast Real-Time PCR system using Fast SYBR Green PCR Master Mix (Applied Biosystems). mRNA levels were calculated based on the difference of threshold Ct values in target gene and average Ct values of 18s, Actb, B2m, and Hprt in the same sample.
For nuclear and cytosolic iron, cells were loaded with 280 nM of ^55Fe-NTA. Excess ^55Fe-NTA was washed off with cold PBS containing 200 μM DFO prior to chelator treatment. The nuclear and cytosolic fractions were isolated using NE-PER Nuclear and Cytoplasmic Extraction Reagents (Pierce) and the radioactivity was quantified with liquid scintillation.

For data set [3], the system named is H9c2 cells. As to the kind of experiment: Mitochondrial ROS (mitoSox) in H9c2 cells after hydrogen peroxide treatment. Type of data set: cell-based, rat. To be noted: chelator pretreatment. As to the method:
as §1
Mitochondrial ROS levels in intact cells were quantified using MitoSox Red (Life Technologies). Briefly, cells were loaded with MitoSox to stain for mitochondrial ROS and Hoechst 33342 for nuclei counter stain. Images were obtained on a Zeiss AxioObserver.Z1 microscope and analyzed with ImageJ software (NIH). MitoSox signal in the nuclei was subtracted to exclude localization of the dye to the nuclei.

Data set [4] has as its system H9c2 cells. As to the kind of experiment: Mitochondrial membrane potential (TMRE) in H9c2 cells. Type of data set: cell-based, rat. To be noted: H2O2. As to the method:
as §1
Cells were stained with 5 nM of TMRE (Life Technology) and counter stained with Hoechst 33342. Images were obtained on a Zeiss AxioObserver.Z1 microscope and analyzed with ImageJ software (NIH).

The test system of data set [5] is H9c2 cardiomyoblasts. As to the kind of experiment: Mitochondrial labile (chelatable) iron by RPA fluorescence in H9c2 cells. It is filed as cell-based, rat. As for the experimental part: as §1
Tissue iron was measured colorimetrically by the formation of a complex with bathophenanthroline disulfonate or ferene-S as described previously (Ichikawa et al., 2012; Khechaduri et al., 2013). […] Quantitative measurement of labile iron was done according to previously described methods (Cabantchik et al., 1996; Petrat et al., 2002b). […]

The test system of data set [6] is wild-type mice subjected to I/R. Put plainly: Ischemia/reperfusion (I/R) injury in chelator-pretreated wild-type mice. It is filed as in vivo. As to the method: (§2) To test the use of these iron chelators in the setting of I/R, mice were pretreated for a week with these chelators and then subjected to I/R or sham operation. Chelation was continued for two weeks after the operation. […] To rule out any changes of serum iron hematopoiesis that can account for the cardiac functional difference, we performed complete blood counts and measured serum iron parameters in wild-type mice treated with iron chelators for 3 weeks.
(§3) Mice were treated with 80 mg/kg BPD (Sigma) in normal saline solution daily or 50 mg/kg DFO (Sigma) in normal saline every other day via intraperitoneal injection. The dose of BPD was chosen based on its ability to modulate cardiac mitochondrial iron, and the dose of DFO was chosen according to previously published studies (Ichikawa et al., 2014). BPD was prepared as a 400 mg/ml stock solution in ethanol and diluted 1:100 in normal saline to working concentration. DFO was prepared as a 250 mg/ml stock in water and diluted 1:100 in normal saline to working concentration.
The procedure was performed as described previously (Wu et al., 2011).
Parasternal short- and long-axis views of the heart were obtained using a Vevo 770 high-resolution imaging system with a 30 MHz scan head. 2D and M-mode images were obtained and analyzed. Ejection fraction was calculated from M mode image using Teichholtz equation, and fractional shortening was directly calculated from end-systolic and end-diastolic chamber size from M-mode images.
At the time of tissue harvest, heart was excised and rinsed in phosphate buffered saline to remove excess blood on tissue and in ventricles. Hearts were then submerged into OTC compound and frozen in liquid nitrogen. For hearts with I/R injury, sections were collected 500 μm below suture line to capture the injured region. Sections were stained with hematoxylin and eosin for evaluation of general cardiac morphology and tissue organization. Masson Trichrome staining were used to visualize cardiac fibrosis. Fibrosis was quantified from low power microscope images by dividing the arc length of fibrotic scar to the circumference of left ventricle.
H9c2 cardiomyoblasts were cultured in DMEM (ATCC) supplemented with 10% FBS (Thermo) and Penicillin/Streptomycin (Cellgro). HEK293T cells were cultured in MEM (Cellgro) supplemented with 10% FBS, sodium pyruvate (Cellgro) and Penicillin/Streptomycin. […] Purified RNA was then reverse transcribed with Random Hexamer and Oligo dT(16) (Applied Biosystems) and amplified on a 7500 Fast Real-Time PCR system using Fast SYBR Green PCR Master Mix (Applied Biosystems). mRNA levels were calculated based on the difference of threshold Ct values in target gene and average Ct values of 18s, Actb, B2m, and Hprt in the same sample.

Data set [7] can be described thus: Complete blood count and serum iron parameters in wild-type mice with chelator treatment. It is filed as in vivo. The conditions noted are these: iron chelators for 3 weeks, n = 5, mean±SEM. As to the method: as §2, §3

For `c1ccc(-c2ccccn2)nc1` [BPD, 2,2′-bipyridyl], in data set [1], the “log P” value is on record as 1.5. Also, in data set [2], the cytosolic iron result is reported as “significant decreases” and the nuclear iron result is reported as “significant decreases”. Besides, the “increase in mitochondrial ROS after hydrogen peroxide treatment (mitoSox)” value in data set [3] is on record as “significantly attenuated”. Also, the “mitochondrial membrane potential after oxidative stress” value in data set [4] is reported as “prevented the significant decrease of mitochondrial membrane potential after oxidative stress”. Moreover, the “increase in mitochondrial labile iron after H2O2 treatment” value in data set [5] (chelator pretreatment, then 600 μM H2O2 for 6 hours) is recorded as “attenuated”. Moreover, in data set [5] (two-hour pretreatment, 200 μM DFO or 100 μM BPD, no H2O2), the “chelatable / labile mitochondrial iron” value was “decreased mitochondrial labile iron; also recorded: significantly reduced chelatable mitochondrial iron; also recorded: significantly lowered chelatable mitochondrial iron”. The “cardiac remodeling (tissue fibrosis) after I/R” value in data set [6] (mice pretreated for a week, H&E and Masson Trichrome staining) is “less cardiac remodeling compared to either vehicle- or DFO-treated mice”. In addition, in data set [6] (mice pretreated for a week, chelation continued for two weeks after operation), the “cardiac function after I/R / protection against I/R injury” value is given as “significantly preserved cardiac function after I/R; also recorded: protected mice against I/R injury”. The “expression of Nppa, Nppb and Myh7 after I/R” value in data set [6] (mice pretreated for a week, subjected to I/R) is “attenuated the expression of Nppa, Nppb and Myh7”. In data set [6] (mice pretreated with chelator), the “ROS production after I/R” value is “reduced ROS production”. Moreover, in data set [7], the Hematocrit was 47.53 ± 1.84%, the Hemoglobin is 13.12 ± 0.30 g/dL, the “Iron Saturation” value came to 15.25 ± 0.81 % and the MCH worked out at 12.38 ± 0.53 pg. Besides, in data set [7], the MCHC is 26.34 ± 1.21 g/dL, the MCV was found to be 47.02 ± 0.36 fL, the Platelet is 1007 ± 236.72 10^3/μL and the RBC is given as 10.7 ± 0.62 10^6/μL. Further, in data set [7], the RDW is 17 ± 0.41%, the “Serum Iron” value amounted to 44.40 ± 2.24 µg/dL, the “Total Iron Binding Capacity” value worked out at 291.42 ± 4.63 µg/dL and the “Unsaturated Iron Binding Capacity” value amounted to 247.02 ± 4.93 µg/dL. In addition, in data set [7], the WBC is 5.70 ± 0.40 10^3/μL.
